# Measured values: patent publication US20140045805A1, “Fragrance Compositions and Other Compositions Which Contain Naturally Occurring Substances Found in Corals” (priority 2007, published 2014)
# Key:
# [1] = system: healthy volunteers (men and women); assay: Physiologic parameters (electrophysiology) after nasal exposure; assay type: in vivo, human; set-up: Mean MA, BT (body temperature) / Mean MA, EMG (electromyogram) / Mean MA, BR (blinking reflex) / Mean MA, EEG-A (alpha cortical activity) / Mean MA, EEG-B (beta cortical activity) / Mean MA, EEG-T (theta cortical activity) / Mean MA, EDA (electrodermal activity): unit not given here; details: for Mean MA, BR (blinking reflex) / Mean MA, BT (body temperature) / Mean MA, EDA (electrodermal activity) / Mean MA, EEG-A (alpha cortical activity) / Mean MA, EEG-B (beta cortical activity) / Mean MA, EEG-T (theta cortical activity) / Mean MA, EMG (electromyogram) / Mean MA, HR (heart rate) / Mean MA, RR (respiration rate): 12 ng/20 min airborne nasal; for % Change MA, BR (blinking reflex) / % Change MA, EDA (electrodermal activity) / % Change MA, EEG-A (alpha cortical activity) / % Change MA, EEG-B (beta cortical activity) / % Change MA, EEG-T (theta cortical activity) / % Change MA, EMG (electromyogram) / % Change MA, HR (heart rate) / % Change MA, RR (respiration rate): 12 ng, vs baseline-2
# Description: We assessed the resulting physiological responses and behavioral changes induced by nasal exposure to 12 ng pregna-5,20-dien-3β-ol in 76 volunteers (38 women and 38 men), age 18 to 46 (Table 1) using a placebo-controlled, single blind and crossover study design. The items of the modified DABS-70 were rearranged during consecutive administrations, in order to minimize the effect of learning.
# Upon completion of the first DABS-70, each subject was invited to rest supine in a comfortable medical bed in a quiet room and several non-invasive electrode leads and transducers were positioned on the surface skin of the arms, face and skull to help measure physiologic parameters (FIG. 4). A conventional grounding electrode and a reference electrode lead were positioned on the surface skin of the mastoid process and the right ear lobe respectively, with the aid of hypoallergenic conductive paste. Other non-invasive standard electrode-leads and transducers were used for recording the following physiologic parameters: • Electrocardiogram (EKG), standard bipolar I. • Electropneumogram (EPG), strain gauge around lower thorax. • Electrodermal activity (EDA), palm surface of 3rd and 4th finger (right hand). • Blinking reflex (BR), upper and lower left eye-lid. • Electromyogram (EMG), bilaterally in chin area. • Body temperature (BT), mini-thermistor probe in external ear canal. • Electroencephalogram (EEG), CzA2 and T4A2 from the […] International EEG electrode placement chart.
# During the course of a recording session, physiologic readings were performed in four consecutive instances, before and after randomized administration of active substance or control (FIG. 4): PHYS-1 recording, starting 5 minutes before the first randomized dosing; PHYS-2, starting 15 minutes after administration of the first randomized dosing; PHYS-3, starting 5 minutes before administration of the second randomized dosing; and PHYS-4 starting 15 minutes after administration of the second randomized dosing.
# All physiological recordings were pre-amplified and digitized (Biopac Systems), and continuously computer monitored and stored (Macintosh G3), for further off-line processing and analysis (for a detailed explanation see Monti-Bloch et al, 1994, 1998).
# Active substance (pregna-5,20-dien-3β-ol) and control were freshly prepared on 0.7 cm×10 cm perfumery grade smelling strips 24 hours before the experiment. A perfumery grade smelling strip was positioned on the upper lip of the subject for delivery of control or active substance to the nasal passages for a period of 20 minutes. Each breath carried vapors of pregna-5,20-dien-3β-ol or control (air) from the paper strip to the nasal passages.
# Perfumery grade smelling strips containing either pregna-5,20-dien-3β-ol or control were prepared as follows: 100 μl of stock solution containing 100 mg pregna-5,20-dien-3β-ol/10 mL ethanol (95%) was added to a clean paper strip. Ethanol was allowed to evaporate overnight in a clean fume hood, and 1 mg of dry crystals of pregna-5,20-dien-3β-ol remained embedded in the dried perfumery grade smelling strip. Control was a perfumery grade smelling strip prepared following the same procedure but the solution was devoid of active substance.
# The following assumptions were used to calculate the quantity of pregna-5,20-dien-3β-ol delivered to the nasal passages during a study session: a) the quantity of pregna-5,20-dien-3β-ol arriving to the nasal passages with each breath is ≈40 pg (determined as described below); b) the average respiratory rate at rest in men and women is ≈15 breaths per minute; and c) the subject was exposed to pregna-5,20-dien-3β-ol for 20 min during the entire study session. The total calculated quantity of pregna-5,20-dien-3β-ol delivered to the nasal passages over 20 min (exposure during the study session) was calculated as follows: 40 pg/breath×15 breaths/min×20 min=12000 pg=12 ng. […]
# [2] = system: healthy volunteers (men and women); assay: Behavioral effects by modified DABS-70 inventory after nasal exposure; assay type: in vivo, human; details: 12 ng nasal
# [3] = biological target: T1, human testicular 17α Hydroxylase/C17-20-Lyase (Homo sapiens, UniProt P05093); details: Li et al. 1996; Brodie et al. U.S. Pat. No. 5,994,334; cited from earlier work
# T1 sequence (P05093 1-508): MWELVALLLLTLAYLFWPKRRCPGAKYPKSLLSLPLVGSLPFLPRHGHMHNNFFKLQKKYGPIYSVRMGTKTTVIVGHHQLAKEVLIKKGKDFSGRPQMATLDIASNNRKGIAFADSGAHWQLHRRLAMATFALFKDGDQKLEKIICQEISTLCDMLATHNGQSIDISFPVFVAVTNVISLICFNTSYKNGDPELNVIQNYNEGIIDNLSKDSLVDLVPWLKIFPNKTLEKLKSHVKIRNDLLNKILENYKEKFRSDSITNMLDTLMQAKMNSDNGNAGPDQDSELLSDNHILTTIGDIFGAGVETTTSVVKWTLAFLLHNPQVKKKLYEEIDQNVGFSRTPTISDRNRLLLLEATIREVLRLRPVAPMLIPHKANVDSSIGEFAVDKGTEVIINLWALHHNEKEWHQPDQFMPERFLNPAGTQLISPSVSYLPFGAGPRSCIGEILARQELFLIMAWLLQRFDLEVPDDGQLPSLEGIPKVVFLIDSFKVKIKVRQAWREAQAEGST
# [4] = men, listed as Pregna-5,20-dien-3β-ol
# [5] = women, listed as Pregna-5,20-dien-3β-ol
smiles,measurement,setting,value
"C=C[C@H]1CC[C@H]2[C@@H]3CC=C4C[C@@H](O)CC[C@]4(C)[C@H]3CC[C@]12C [pregna-5,20-dien-3β-ol, Pregna-5,20-dien-3β-ol]","Mean MA, BR (blinking reflex)",[1]; men,25.970
same,"Mean MA, BT (body temperature)",[1]; men,−0.011
same,"Mean MA, EDA (electrodermal activity)",[1]; men,3.467
same,"Mean MA, EEG-A (alpha cortical activity)",[1]; men,29.613
same,"Mean MA, EEG-B (beta cortical activity)",[1]; men,57.853
same,"Mean MA, EEG-T (theta cortical activity)",[1]; men,17.630
same,"Mean MA, EMG (electromyogram)",[1]; men,20.067
same,"Mean MA, HR (heart rate)",[1]; men,66.323
same,"Mean MA, RR (respiration rate)",[1]; men,13.133
same,"% Change MA, BR (blinking reflex)",[1]; men,−22.392%
same,"% Change MA, EDA (electrodermal activity)",[1]; men,44.458%
same,"% Change MA, EEG-A (alpha cortical activity)",[1]; men,2.798%
same,"% Change MA, EEG-B (beta cortical activity)",[1]; men,−13.691%
same,"% Change MA, EEG-T (theta cortical activity)",[1]; men,14.036%
same,"% Change MA, EMG (electromyogram)",[1]; men,64.524%
same,"% Change MA, HR (heart rate)",[1]; men,−2.609%
same,"% Change MA, RR (respiration rate)",[1]; men,−19.097%
same,"% Change MA, EEG-A (alpha cortical activity)",[1]; [4],did not have a significant effect
same,"% Change MA, EEG-B (beta cortical activity)",[1]; [4],did not have a significant effect
same,"% Change MA, HR (heart rate)",[1]; [4],−2.6%
same,"Mean MA, BR (blinking reflex)",[1]; women,28.483
same,"Mean MA, BT (body temperature)",[1]; women,0.064
same,"Mean MA, EDA (electrodermal activity)",[1]; women,3.379
same,"Mean MA, EEG-A (alpha cortical activity)",[1]; women,27.724
same,"Mean MA, EEG-B (beta cortical activity)",[1]; women,61.069
same,"Mean MA, EEG-T (theta cortical activity)",[1]; women,17.897
same,"Mean MA, EMG (electromyogram)",[1]; women,25.276
same,"Mean MA, HR (heart rate)",[1]; women,64.828
same,"Mean MA, RR (respiration rate)",[1]; women,13.379
same,"% Change MA, BR (blinking reflex)",[1]; women,−31.859%
same,"% Change MA, EDA (electrodermal activity)",[1]; women,71.784%
same,"% Change MA, EEG-A (alpha cortical activity)",[1]; women,−14.871%
same,"% Change MA, EEG-B (beta cortical activity)",[1]; women,−1.023%
same,"% Change MA, EEG-T (theta cortical activity)",[1]; women,24.001%
same,"% Change MA, EMG (electromyogram)",[1]; women,55.545%
same,"% Change MA, HR (heart rate)",[1]; women,−3.000%
same,"% Change MA, RR (respiration rate)",[1]; women,−16.030%
same,"% Change MA, EEG-A (alpha cortical activity)",[1]; [5],did not have a significant effect
same,"% Change MA, EEG-B (beta cortical activity)",[1]; [5],did not have a significant effect
same,"% Change MA, HR (heart rate)",[1]; [5],−3.0%
same,"% Change MA, RR (respiration rate)",[1]; [5],−16.03%
same,"Negativity cluster, response versus control",[2]; listed as muricin aglycone,no effect on negativity
same,"Social Warmth and Friendliness cluster, overall response versus control","[2]; regardless of gender, p<0.00001, listed as muricin aglycone",enhanced levels
same,Inhibition of human testicular 17α Hydroxylase/C17-20-Lyase,[3],little activity
